Literature values, collected in paper PMC8748714, “Dynamics of GLP-1R peptide agonist engagement are correlated with kinetics of G protein activation” (Nature Communications, 2022).

Legend:
[1] = tested on: GLP-1R
Description: Despite this conservation, these peptides induce distinct signalling profiles and have different mechanisms for receptor interaction. […] While there was also conservation in the TM bundle interactions when engaged by the four peptides, differences were identified in how each peptide uses different networks to facilitate G protein coupling. This transmission of information across the TM bundle also enables G ...

[2] = tested on: GLP-1R; conditions: vs full-length exendin-4

exendin(9–39): N-terminally truncated exendin-4 lacking the first 8 amino acids
lower affinity than corresponding full-length peptide ([1]; exendin(9–39) vs exendin-4, GLP-1(15–36) vs GLP-1): 10–30 fold

GLP-1 (Ala2Gly): GLP-1 with Ala2Gly substitution
effect of residue 2 substitution on affinity ([1]; ref 31-33 (chimera ref 32)): reduced affinity

truncation of the first two residues of exendin-4: exendin-4 truncated by the first two residues
decrease in potency for cAMP signalling on truncation of first two residues [2]: ~ 200 fold | affinity on truncation of first two residues ([1]; vs full-length exendin-4): does not significantly alter its affinity
